Source: patent US10472347B2, “Aminopyrazine compounds with A2A antagonist properties” (Merck Sharp & Dohme Corp., priority 2014, dated 2019)

Target: T1, human A2a receptor (Homo sapiens, UniProt P29274)
T1 construct: purchased Perkin-Elmer RBHA2AM400UA; host or cells: HEK293 cells (membranes)
Experiment: A2a competition binding assay, Scintillation Proximity technology
Conditions: membranes from HEK293 cells expressing human A2a receptor; Ki by Cheng-Prusoff equation
Outline: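 SPA competition: 0.5 nM tritiated pyrazolotriazolopyrimidine ligand displaced by compound at 3000 to 0.15 nM, 1 h room temperature, human A2a HEK293 membranes pretreated with adenosine deaminase, PBS/10 mM MgCl2 buffer. CGS15943 1 μM defined non-specific binding; EC50 converted to Ki via Cheng-Prusoff.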

T1 sequence (P29274 whole entry): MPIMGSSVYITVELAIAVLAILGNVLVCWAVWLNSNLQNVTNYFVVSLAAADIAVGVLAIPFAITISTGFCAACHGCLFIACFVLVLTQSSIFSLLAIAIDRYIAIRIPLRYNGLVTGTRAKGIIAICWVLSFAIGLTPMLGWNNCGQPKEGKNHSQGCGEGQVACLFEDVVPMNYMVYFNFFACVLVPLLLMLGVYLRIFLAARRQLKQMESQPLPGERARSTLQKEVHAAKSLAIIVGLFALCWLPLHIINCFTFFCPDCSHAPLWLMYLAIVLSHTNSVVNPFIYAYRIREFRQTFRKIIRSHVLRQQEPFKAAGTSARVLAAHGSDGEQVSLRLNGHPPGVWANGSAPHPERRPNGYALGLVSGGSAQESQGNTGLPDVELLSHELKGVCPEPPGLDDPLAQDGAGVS

Ki | SMILES
0.5 nM | Cc1cnn(-c2nc(N)c(C(=O)NCc3cccc4c3C(=O)NC4)nc2Cl)c1 [Ex-363, 3-amino-6-chloro-5-(4-methyl-1H-pyrazol-1-yl)-N-[(3-oxo-2,3-dihydro-1H-isoindol-4-yl)methyl]pyrazine-2-carboxamide]
1490 nM | Cc1cccnc1CNC(=O)c1nc(C)c(-c2nc(C(F)(F)F)co2)nc1N [Ex-379, 3-amino-6-methyl-N-[(3-methylpyridin-2-yl)methyl]-5-[4-(trifluoromethyl)-1,3-oxazol-2-yl]pyrazine-2-carboxamide]
0.384 nM | Cc1coc(-c2nc(N)c(C(=O)NCc3ncccc3C)nc2C)n1 [Ex-380, 3-amino-6-methyl-5-(4-methyl-1,3-oxazol-2-yl)-N-[(3-methylpyridin-2-yl)methyl]pyrazine-2-carboxamide]
80.5 nM | Cc1cccnc1CNC(=O)c1nc(C)c(-c2nc(C)c(C)o2)nc1N [Ex-381, 3-amino-5-(4,5-dimethyl-1,3-oxazol-2-yl)-6-methyl-N-[(3-methylpyridin-2-yl)methyl]pyrazine-2-carboxamide]
38.4 nM | COCc1coc(-c2nc(N)c(C(=O)NCc3ncccc3C)nc2C)n1 [Ex-382, 3-amino-5-[4-(methoxymethyl)-1,3-oxazol-2-yl]-6-methyl-N-[(3-methylpyridin-2-yl)methyl]pyrazine-2-carboxamide]
6.4 nM | Cc1cnc(-c2nc(N)c(C(=O)NCc3ncccc3C)nc2C)o1 [Ex-383, 3-amino-6-methyl-5-(5-methyl-1,3-oxazol-2-yl)-N-[(3-methylpyridin-2-yl)methyl]pyrazine-2-carboxamide]
63.7 nM | Cc1cccnc1CNC(=O)c1nc(C)c(-c2ncc(C(F)(F)F)o2)nc1N [Ex-384, 3-amino-6-methyl-N-[(3-methylpyridin-2-yl)methyl]-5-[5-(trifluoromethyl)-1,3-oxazol-2-yl]pyrazine-2-carboxamide]
0.6 nM | N#Cc1nc(C(=O)NCc2cccc3cccnc23)c(N)nc1-n1cccn1 [Ex-385, 3-amino-6-cyano-5-(1H-pyrazol-1-yl)-N-(quinolin-8-ylmethyl)pyrazine-2-carboxamide]
0.3 nM | N#Cc1nc(C(=O)NCc2ncccc2C(F)(F)F)c(N)nc1-c1ncco1 [Ex-386, 3-amino-6-cyano-5-(1,3-oxazol-2-yl)-N-{[3-(trifluoromethyl)pyridin-2-yl]methyl}pyrazine-2-carboxamide]
2.8 nM | Cc1cnn(-c2nc(N)c(C(=O)NCc3cccc4cccnc34)nc2C(F)F)c1 [Ex-387, 3-amino-6-(difluoromethyl)-5-(4-methyl-1H-pyrazol-1-yl)-N-(quinolin-8-ylmethyl)pyrazine-2-carboxamide]
2.5 nM | Nc1nc(-n2nccn2)c(CO)nc1C(=O)NCc1cccc2cccnc12 [Ex-388, 3-amino-6-(hydroxymethyl)-N-(quinolin-8-ylmethyl)-5-(2H-1,2,3-triazol-2-yl)pyrazine-2-carboxamide]
